Test results as given in US20260256792A1, “TREATMENT OF CHRONIC SPONTANEOUS URTICARIA BY ADMINISTERING (R)-2-[3-[4-AMINO-3-(2-FLUORO-4-PHENOXY-PHENYL)PYRAZOLO[3,4-D]PYRIMIDIN-1-YL]PIPERIDINE-1-CARBONYL]-4-METHYL-4-[4-(OXETAN-3-YL)PIPERAZIN-1-YL]PENT-2-ENENITRILE” (priority 2023, published 2026).

Tested on: moderate-to-severe chronic spontaneous urticaria (CSU)
Test: Phase 2 CSU study: urticaria activity score over 7 days (UAS7)
Assay type: in vivo, human
Details: for Responder n (%), UAS7 ≤6 / Imputed non-responder n (%), UAS7 = 0 / Imputed non-responder n (%), UAS7 ≤6 / Non-responder n (%), UAS7 = 0 / Non-responder n (%), UAS7 ≤6 / OR for rilzabrutinib vs. placebo, UAS7 = 0 / RRD (%) for rilzabrutinib vs. placebo, UAS7 = 0 / RRD (%) for rilzabrutinib vs. placebo, UAS7 ≤6 / Responder n (%), UAS7 = 0 / OR for rilzabrutinib vs. placebo, UAS7 ≤6: ITT; for UAS7 Post-baseline Mean (SD): Omalizumab-Naïve Population with Outlier Removed
Text: The study comprises a 12 week, randomized, double-blind, placebo-controlled, multi-center, dose-ranging efficacy and safety phase, followed by a 40 week open label extension (OLE) phase (see FIG. 1). The study consists of three phases and an optional OLE phase. […] Clinically, CSU is characterized by the spontaneous and recurrent appearance of pruritic hives. The proposed primary endpoints were the UAS7 at Week 12 in EU and EU reference countries and the ISS7 in the US. Regardless of where a participant was from, all assessments were the same. The UAS7 score is a composite score containing both the HSS7 and the ISS7. This allowed a global assessment of the two key components of urticaria: hives and itch. […] The UAS is a validated PRO measure. […] The daily UAS scores range from 0 to 6 point/day. […] Patients were to complete the UAS using the e-diary. […] The following secondary endpoints were to be analyzed using the same approach as for the primary endpoint: • Change from baseline in UAS7 at Week 4 • Change from baseline in UAS7 at Week 12 (for US and US reference countries) • Change from baseline in ISS7 at Week 12 (except US and US reference countries) • Change from baseline in HSS7 at Week 12 The following responder secondary endpoints were to be analyzed using the Cochran-Mantel-Haenszel test adjusted by region: • Proportion of participants with UAS7<6 at Week 12 • Proportion of participants with UAS7=0 at Week 12 Participants who received selected prohibited medications and/or rescue medications were to be considered as non-responders for time points after the medication usage. For other participants, all available data including those collected during the off-treatment period were to be used to determine the responder/non-responder status. Missing data were to be considered as non-responders.

## CC(C)(C=C(C#N)C(=O)N1CCC[C@@H](n2nc(-c3ccc(Oc4ccccc4)cc3F)c3c(N)ncnc32)C1)N1CCN(C2COC2)CC1 [rilzabrutinib, (R)-2-[3-[4-amino-3-(2-fluoro-4-phenoxy-phenyl)pyrazolo[3,4-d]pyrimidin-1-yl]piperidine-1-carbonyl]-4-methyl-4-[4-(oxetan-3-yl)piperazin-1-yl]pent-2-enenitrile]
400 mg QPM, Week 12
  Responder n (%), UAS7 ≤6: 2 (5.3) n (%)
400 mg TID, Week 1
  Imputed non-responder n (%), UAS7 = 0: 0 n (%)
  Imputed non-responder n (%), UAS7 ≤6: 0 n (%)
  Non-responder n (%), UAS7 = 0: 40 (97.6) n (%)
  Non-responder n (%), UAS7 ≤6: 31 (75.6) n (%)
  OR for rilzabrutinib vs. placebo, UAS7 = 0: 1.084
  RRD (%) for rilzabrutinib vs. placebo, UAS7 = 0: 0.2 %
  RRD (%) for rilzabrutinib vs. placebo, UAS7 ≤6: 17.6 %
  Responder n (%), UAS7 = 0: 1 (2.4) n (%)
  Responder n (%), UAS7 ≤6: 10 (24.4) n (%)
400 mg TID, Week 2
  Imputed non-responder n (%), UAS7 = 0: 0 n (%)
  Imputed non-responder n (%), UAS7 ≤6: 0 n (%)
  Non-responder n (%), UAS7 = 0: 35 (85.4) n (%)
  Non-responder n (%), UAS7 ≤6: 30 (73.2) n (%)
  OR for rilzabrutinib vs. placebo, UAS7 = 0: 6.522
  OR for rilzabrutinib vs. placebo, UAS7 ≤6: 6.049
  RRD (%) for rilzabrutinib vs. placebo, UAS7 = 0: 11.0 %
  RRD (%) for rilzabrutinib vs. placebo, UAS7 ≤6: 19.4 %
  Responder n (%), UAS7 = 0: 6 (14.6) n (%)
  Responder n (%), UAS7 ≤6: 11 (26.8) n (%)
400 mg TID, Week 3
  Imputed non-responder n (%), UAS7 = 0: 0 n (%)
  Imputed non-responder n (%), UAS7 ≤6: 0 n (%)
  Non-responder n (%), UAS7 = 0: 37 (90.2) n (%)
  Non-responder n (%), UAS7 ≤6: 30 (73.2) n (%)
  OR for rilzabrutinib vs. placebo, UAS7 = 0: 4.480
  OR for rilzabrutinib vs. placebo, UAS7 ≤6: 3.055
  RRD (%) for rilzabrutinib vs. placebo, UAS7 = 0: 6.9 %
  RRD (%) for rilzabrutinib vs. placebo, UAS7 ≤6: 14.9 %
  Responder n (%), UAS7 = 0: 4 (9.8) n (%)
  Responder n (%), UAS7 ≤6: 11 (26.8) n (%)
400 mg TID, Week 4
  Imputed non-responder n (%), UAS7 = 0: 3 (7.3) n (%)
  Imputed non-responder n (%), UAS7 ≤6: 3 (7.3) n (%)
  Non-responder n (%), UAS7 = 0: 37 (90.2) n (%)
  Non-responder n (%), UAS7 ≤6: 34 (82.9) n (%)
  OR for rilzabrutinib vs. placebo, UAS7 = 0: 1.867
  OR for rilzabrutinib vs. placebo, UAS7 ≤6: 1.217
  RRD (%) for rilzabrutinib vs. placebo, UAS7 = 0: 4.0 %
  RRD (%) for rilzabrutinib vs. placebo, UAS7 ≤6: 2.4 %
  Responder n (%), UAS7 = 0: 4 (9.8) n (%)
  Responder n (%), UAS7 ≤6: 7 (17.1) n (%)
400 mg TID, Week 5
  Imputed non-responder n (%), UAS7 = 0: 3 (7.3) n (%)
  Imputed non-responder n (%), UAS7 ≤6: 3 (7.3) n (%)
  Non-responder n (%), UAS7 = 0: 34 (82.9) n (%)
  Non-responder n (%), UAS7 ≤6: 27 (65.9) n (%)
  OR for rilzabrutinib vs. placebo, UAS7 = 0: 7.606
  OR for rilzabrutinib vs. placebo, UAS7 ≤6: 8.858
  RRD (%) for rilzabrutinib vs. placebo, UAS7 = 0: 13.2 %
  RRD (%) for rilzabrutinib vs. placebo, UAS7 ≤6: 26.0 %
  Responder n (%), UAS7 = 0: 7 (17.1) n (%)
  Responder n (%), UAS7 ≤6: 14 (34.1) n (%)
400 mg TID, Week 6
  Imputed non-responder n (%), UAS7 = 0: 5 (12.2) n (%)
  Imputed non-responder n (%), UAS7 ≤6: 5 (12.2) n (%)
  Non-responder n (%), UAS7 = 0: 32 (78.0) n (%)
  Non-responder n (%), UAS7 ≤6: 28 (68.3) n (%)
  OR for rilzabrutinib vs. placebo, UAS7 = 0: 9.649
  OR for rilzabrutinib vs. placebo, UAS7 ≤6: 2.273
  RRD (%) for rilzabrutinib vs. placebo, UAS7 = 0: 17.2 %
  RRD (%) for rilzabrutinib vs. placebo, UAS7 ≤6: 14.2 %
  Responder n (%), UAS7 = 0: 9 (22.0) n (%)
  Responder n (%), UAS7 ≤6: 13 (31.7) n (%)
400 mg TID, Week 7
  Imputed non-responder n (%), UAS7 = 0: 6 (14.6) n (%)
  Imputed non-responder n (%), UAS7 ≤6: 6 (14.6) n (%)
  Non-responder n (%), UAS7 = 0: 37 (90.2) n (%)
  Non-responder n (%), UAS7 ≤6: 30 (73.2) n (%)
  OR for rilzabrutinib vs. placebo, UAS7 = 0: 4.480
  OR for rilzabrutinib vs. placebo, UAS7 ≤6: 3.247
  RRD (%) for rilzabrutinib vs. placebo, UAS7 = 0: 6.9 %
  RRD (%) for rilzabrutinib vs. placebo, UAS7 ≤6: 16.1 %
  Responder n (%), UAS7 = 0: 4 (9.8) n (%)
  Responder n (%), UAS7 ≤6: 11 (26.8) n (%)
400 mg TID, Week 8
  Imputed non-responder n (%), UAS7 = 0: 8 (19.5) n (%)
  Imputed non-responder n (%), UAS7 ≤6: 8 (19.5) n (%)
  Non-responder n (%), UAS7 = 0: 37 (90.2) n (%)
  Non-responder n (%), UAS7 ≤6: 28 (68.3) n (%)
  OR for rilzabrutinib vs. placebo, UAS7 = 0: 1.697
  OR for rilzabrutinib vs. placebo, UAS7 ≤6: 2.257
  RRD (%) for rilzabrutinib vs. placebo, UAS7 = 0: 3.2 %
  RRD (%) for rilzabrutinib vs. placebo, UAS7 ≤6: 12.7 %
  Responder n (%), UAS7 = 0: 4 (9.8) n (%)
  Responder n (%), UAS7 ≤6: 13 (31.7) n (%)
400 mg TID, Week 9
  Imputed non-responder n (%), UAS7 = 0: 7 (17.1) n (%)
  Imputed non-responder n (%), UAS7 ≤6: 7 (17.1) n (%)
  Non-responder n (%), UAS7 = 0: 37 (90.2) n (%)
  Non-responder n (%), UAS7 ≤6: 26 (63.4) n (%)
  OR for rilzabrutinib vs. placebo, UAS7 = 0: 1.117
  OR for rilzabrutinib vs. placebo, UAS7 ≤6: 4.680
  RRD (%) for rilzabrutinib vs. placebo, UAS7 = 0: 0.8 %
  RRD (%) for rilzabrutinib vs. placebo, UAS7 ≤6: 22.0 %
  Responder n (%), UAS7 = 0: 4 (9.8) n (%)
  Responder n (%), UAS7 ≤6: 15 (36.6) n (%)
400 mg TID, Week 10
  Imputed non-responder n (%), UAS7 = 0: 7 (17.1) n (%)
  Imputed non-responder n (%), UAS7 ≤6: 7 (17.1) n (%)
  Non-responder n (%), UAS7 = 0: 35 (85.4) n (%)
  Non-responder n (%), UAS7 ≤6: 27 (65.9) n (%)
  OR for rilzabrutinib vs. placebo, UAS7 = 0: 1.210
  OR for rilzabrutinib vs. placebo, UAS7 ≤6: 2.074
  RRD (%) for rilzabrutinib vs. placebo, UAS7 ≤6: 12.9 %
  Responder n (%), UAS7 = 0: 6 (14.6) n (%)
  Responder n (%), UAS7 ≤6: 14 (34.1) n (%)
400 mg TID, Week 11
  Imputed non-responder n (%), UAS7 = 0: 6 (14.6) n (%)
  Imputed non-responder n (%), UAS7 ≤6: 6 (14.6) n (%)
  Non-responder n (%), UAS7 = 0: 34 (82.9) n (%)
  Non-responder n (%), UAS7 ≤6: 26 (63.4) n (%)
  OR for rilzabrutinib vs. placebo, UAS7 = 0: 3.449
  OR for rilzabrutinib vs. placebo, UAS7 ≤6: 2.322
  RRD (%) for rilzabrutinib vs. placebo, UAS7 = 0: 10.4 %
  RRD (%) for rilzabrutinib vs. placebo, UAS7 ≤6: 15.0 %
  Responder n (%), UAS7 = 0: 7 (17.1) n (%)
  Responder n (%), UAS7 ≤6: 15 (36.6) n (%)
400 mg TID, Week 12
  Imputed non-responder n (%), UAS7 = 0: 11 (26.8) n (%)
  Imputed non-responder n (%), UAS7 ≤6: 11 (26.8) n (%)
  Non-responder n (%), UAS7 = 0: 31 (75.6) n (%)
  Non-responder n (%), UAS7 ≤6: 26 (63.4) n (%)
  OR for rilzabrutinib vs. placebo, UAS7 = 0: 1.995
  OR for rilzabrutinib vs. placebo, UAS7 ≤6: 3.721
  RRD (%) for rilzabrutinib vs. placebo, UAS7 = 0: 9.4 %
  RRD (%) for rilzabrutinib vs. placebo, UAS7 ≤6: 20.9 %
  Responder n (%), UAS7 = 0: 10 (24.4) n (%)
  Responder n (%), UAS7 ≤6: 15 (36.6) n (%)
400 mg BID, Week 1
  UAS7 Post-baseline Mean (SD): 19.77 (11.32)
400 mg BID, Week 2
  UAS7 Post-baseline Mean (SD): 19.59 (10.86)
400 mg BID, Week 3
  UAS7 Post-baseline Mean (SD): 17.71 (11.91)
400 mg BID, Week 4
  UAS7 Post-baseline Mean (SD): 15.92 (11.71)
400 mg BID, Week 5
  UAS7 Post-baseline Mean (SD): 17.22 (13.36)
400 mg BID, Week 6
  UAS7 Post-baseline Mean (SD): 17.02 (12.76)
400 mg BID, Week 7
  UAS7 Post-baseline Mean (SD): 15.55 (11.97)
400 mg BID, Week 8
  UAS7 Post-baseline Mean (SD): 13.98 (13.06)
400 mg BID, Week 9
  UAS7 Post-baseline Mean (SD): 14.64 (14.43)
400 mg BID, Week 10
  UAS7 Post-baseline Mean (SD): 15.22 (14.36)
400 mg BID, Week 11
  UAS7 Post-baseline Mean (SD): 15.06 (13.80)
400 mg BID, Week 12
  UAS7 Post-baseline Mean (SD): 15.61 (13.91)
400 mg QPM, Week 1
  UAS7 Post-baseline Mean (SD): 23.81 (8.78)
